{
  "source": "EPA's ToxRefDB 2",
  "key": {"mouse [1]": {"tested_on": "mouse", "details": "Carcinogenicity, b6c3f1, Oral, Water, dose end: 103 week, group: systemic"}, "rat [2]": {"tested_on": "rat", "details": "Carcinogenicity; fischer; Oral; Water; dose end: 103 week; group: systemic; systemic / pathology microscopic / liver / neoplastic nodule + systemic / pathology microscopic / liver / cellular alteration + systemic / …"}, "mouse [3]": {"tested_on": "mouse", "details": "Subchronic oral toxicity in rodents, b6c3f1, Water, dose end: 13 week, group: systemic"}, "mouse [4]": {"tested_on": "mouse", "details": "Sub-acute repeat dose toxicity, b6c3f1, Oral, Water, dose end: 14 day, group: systemic"}, "rat [5]": {"tested_on": "rat", "details": "Sub-acute repeat dose toxicity, fischer, Oral, Water, dose end: 14 day, group: systemic"}, "rat [6]": {"tested_on": "rat", "details": "Subchronic oral toxicity in rodents, fischer, Water, dose end: 13 week, group: systemic"}, "rat [7]": {"tested_on": "rat", "details": "Sub-acute dermal toxicity, sprague dawley, Topical, dose end: 2 week, group: systemic, systemic / in life observation / body weight / body weight gain + systemic / in life observation / food consumption / food consumption"}, "rat [8]": {"tested_on": "rat", "details": "Subchronic dermal toxicity, sprague dawley, Topical, dose end: 91 day, group: systemic, systemic / in life observation / clinical signs / skin ulceration"}, "[9]": {"details": "systemic / pathology microscopic / kidney / nephropathy"}, "[10]": {"details": "systemic / pathology microscopic / kidney / nephropathy + systemic / pathology microscopic / blood / lymphoma nos"}, "[11]": {"details": "systemic / in life observation / body weight / body weight + systemic / pathology microscopic / liver / hyperplasia + systemic / pathology …"}, "[12]": {"details": "systemic / in life observation / water consumption / water consumption"}, "[13]": {"details": "systemic / in life observation / body weight / body weight gain + systemic / in life observation / water consumption / water consumption + …"}, "[14]": {"details": "systemic / in life observation / body weight / body weight + systemic / in life observation / body weight / body weight gain + systemic / in…"}, "[15]": {"details": "systemic / in life observation / body weight / body weight + systemic / in life observation / water consumption / water consumption + …"}},
  "data": [
    {"molecule": "Cl.Cl.Nc1ccc(Cc2ccc(N)cc2)cc1", "note": "[4,4'-Methylenedianiline dihydrochloride]", "values": [
      {"measurement": "LOAEL", "setting": "mouse [1]; [9]", "result": 19, "unit": "mg/kg/day"},
      {"measurement": "NOAEL", "setting": "mouse [1]; [9]", "result": "< 19", "unit": "mg/kg/day"},
      {"measurement": "LEL", "setting": "mouse [1]; [10]", "result": 19, "unit": "mg/kg/day"},
      {"measurement": "NEL", "setting": "mouse [1]; [10]", "result": "< 19", "unit": "mg/kg/day"},
      {"measurement": "LEL", "setting": "rat [2]", "result": 9, "unit": "mg/kg/day"},
      {"measurement": "LOAEL", "setting": "rat [2]", "result": 9, "unit": "mg/kg/day"},
      {"measurement": "NEL", "setting": "rat [2]", "result": "< 9", "unit": "mg/kg/day"},
      {"measurement": "NOAEL", "setting": "rat [2]", "result": "< 9", "unit": "mg/kg/day"},
      {"measurement": "LOAEL", "setting": "mouse [3]; [11]", "result": 60, "unit": "mg/kg/day"},
      {"measurement": "NOAEL", "setting": "mouse [3]; [11]", "result": 30, "unit": "mg/kg/day"},
      {"measurement": "LEL", "setting": "mouse [3]; [12]", "result": 3.75, "unit": "mg/kg/day"},
      {"measurement": "NEL", "setting": "mouse [3]; [12]", "result": "< 3.75", "unit": "mg/kg/day"},
      {"measurement": "LOAEL", "setting": "mouse [4]; systemic / in life observation / body weight / body weight gain + systemic / in life observation / water consumption / water consumption", "result": 120, "unit": "mg/kg/day"},
      {"measurement": "LEL", "setting": "mouse [4]; [13]", "result": 120, "unit": "mg/kg/day"},
      {"measurement": "NEL", "setting": "mouse [4]; [13]", "result": 60, "unit": "mg/kg/day"},
      {"measurement": "NOAEL", "setting": "mouse [4]; [13]", "result": 60, "unit": "mg/kg/day"},
      {"measurement": "LOAEL", "setting": "rat [5]; [14]", "result": 40, "unit": "mg/kg/day"},
      {"measurement": "NOAEL", "setting": "rat [5]; [14]", "result": 20, "unit": "mg/kg/day"},
      {"measurement": "LEL", "setting": "rat [5]; [12]", "result": 10, "unit": "mg/kg/day"},
      {"measurement": "NEL", "setting": "rat [5]; [12]", "result": "< 10", "unit": "mg/kg/day"},
      {"measurement": "LOAEL", "setting": "rat [6]; [15]", "result": 20, "unit": "mg/kg/day"},
      {"measurement": "NEL", "setting": "rat [6]; [15]", "result": 5, "unit": "mg/kg/day"},
      {"measurement": "NOAEL", "setting": "rat [6]; [15]", "result": 10, "unit": "mg/kg/day"},
      {"measurement": "LEL", "setting": "rat [6]; [12]", "result": 10, "unit": "mg/kg/day"}
    ]},
    {"molecule": "CC(O)CSS(C)(=O)=O", "note": "(configuration not stated) [2-Hydroxypropyl methanethiosulfonate]", "values": [
      {"measurement": "LEL", "setting": "rat [7]", "result": 100, "unit": "mg/kg/day"},
      {"measurement": "LOAEL", "setting": "rat [7]", "result": 100, "unit": "mg/kg/day"},
      {"measurement": "NEL", "setting": "rat [7]", "result": "< 100", "unit": "mg/kg/day"},
      {"measurement": "NOAEL", "setting": "rat [7]", "result": "< 100", "unit": "mg/kg/day"},
      {"measurement": "LEL", "setting": "rat [8]", "result": 10, "unit": "mg/kg/day"},
      {"measurement": "LOAEL", "setting": "rat [8]", "result": 10, "unit": "mg/kg/day"},
      {"measurement": "NEL", "setting": "rat [8]", "result": "< 10", "unit": "mg/kg/day"},
      {"measurement": "NOAEL", "setting": "rat [8]", "result": "< 10", "unit": "mg/kg/day"}
    ]}
  ]
}
